Like-named read-outs stand apart in the source and are kept apart here.
How the values were obtained:
Type in all cases: cell-based, Escherichia coli
EKO-35-Pore = experiment: MIC susceptibility profiling, porinated strain; conditions: for Fold changes of MICs: EKO-35-Pore compared to EKO-35-Pore (reference); for MIC: Escherichia coli, technical duplicate
Summary of the method: (§1)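 E. coli strains carrying a genomically integrated constitutive fhuA ΔC/Δ4L pore were grown 18 h in LB at 37 °C, then diluted 1/2000 in MHB II from OD600 ~1.0. Compounds were tested in duplicate, 2-fold serial titration, for 18 h at 37 °C with shaking. MIC came from OD600 with the pre-incubation background subtracted.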

EKO-35 araC::mdtEF Pore = experiment: MIC susceptibility profiling, porinated efflux platform; conditions: for Fold changes of MICs: EKO-35 araC::mdtEF Pore compared to EKO-35-Pore; for MIC: Escherichia coli, Table 14A, porinated, technical duplicate, read-out: Minimum inhibitory concentration, EKO-35 araC::mdtEF Pore
Summary of the method: as §1

EKO-35 araC::acrD Pore = experiment: as above; conditions: for Fold changes of MICs: EKO-35 araC::acrD Pore compared to EKO-35-Pore; for MIC: Escherichia coli, Table 14A, porinated, technical duplicate, read-out: Minimum inhibitory concentration, EKO-35 araC::acrD Pore
Summary of the method: as §1

EKO-35 araC::emrAB Pore = experiment: as above; conditions: for Fold changes of MICs: EKO-35 araC::emrAB Pore compared to EKO-35-Pore; for MIC: Escherichia coli, EKO-35 araC::emrAB Pore, technical duplicate, read-out: Minimum inhibitory concentration
Summary of the method: as §1

EKO-35 araC::acrEF Pore = experiment: as above; conditions: for Fold changes of MICs: EKO-35 araC::acrEF Pore compared to EKO-35-Pore; for MIC: Escherichia coli, Table 14A, porinated, technical duplicate, read-out: Minimum inhibitory concentration, EKO-35 araC::acrEF Pore
Summary of the method: as §1

EKO-35 araC::emrKY Pore = experiment: as above; conditions: for Fold changes of MICs: EKO-35 araC::emrKY Pore compared to EKO-35-Pore; for MIC: Escherichia coli, EKO-35 araC::emrKY Pore, technical duplicate, read-out: Minimum inhibitory concentration
Summary of the method: as §1

EKO-35 araC::mexCD Pore = experiment: as above; conditions: for Fold changes of MICs: EKO-35 araC::mexCD Pore compared to EKO-35-Pore; for MIC: Escherichia coli, EKO-35 araC::mexCD Pore, technical duplicate, read-out: Minimum inhibitory concentration
Summary of the method: as §1

EKO-35 araC::acrB Pore = experiment: as above; conditions: for Fold changes of MICs: EKO-35 araC::acr-B Pore compared to EKO-35-Pore; for MIC: Escherichia coli, Table 14A, porinated, technical duplicate, read-out: Minimum inhibitory concentration, EKO-35 araC::acrB Pore
Summary of the method: as §1

[1] = system: EKO-35 araC::acrBD408A Pore; experiment: as above; conditions: for Fold changes of MICs: EKO-35 araC::acrBD408A Pore compared to EKO-35-Pore; for MIC: Escherichia coli, EKO-35 araC::acrBD408A Pore, technical duplicate, read-out: Minimum inhibitory concentration
Summary of the method: as §1

EKO-35 araC::macAB Pore = experiment: as above; conditions: for Fold changes of MICs: EKO-35 araC::macAB Pore compared to EKO-35-Pore; for MIC: Escherichia coli, EKO-35 araC::macAB Pore, technical duplicate, read-out: Minimum inhibitory concentration
Summary of the method: as §1

EKO-35 araC::mdtBC Pore = experiment: as above; conditions: for Fold changes of MICs: EKO-35 araC::mdtBC Pore compared to EKO-35-Pore; for MIC: Escherichia coli, EKO-35 araC::mdtBC Pore, technical duplicate, read-out: Minimum inhibitory concentration
Summary of the method: as §1

EKO-35 araC::acrBD408A = experiment: MIC susceptibility profiling, efflux platform; conditions: for Fold change of MICs: EKO-35 araC::acrBD408A compared to EKO-35; for MIC: Escherichia coli, Table 13B, non-porinated, technical duplicate, read-out: Minimum Inhibitory Concentration, EKO-35 araC::acrBD408A
Summary of the method: (§2)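 MIC derived from pre-incubation-corrected OD600 after 18 h growth at 37° C. (900 rpm) in MHB II. Inoculum was cells from 18 h LB culture adjusted to OD600 ~1.0 in PBS, then diluted 1/2000; compounds two-fold serially titrated in duplicate, DMSO as solvent control.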

EKO-35 araC::mdtBC = experiment: MIC susceptibility profiling, efflux platform; conditions: for Fold change of MICs: EKO-35 araC::mdtBC compared to EKO-35; for MIC: Escherichia coli, Table 13B, non-porinated, technical duplicate, read-out: Minimum Inhibitory Concentration, EKO-35 araC::mdtBC
Summary of the method: as §2

EKO-35 araC::acrEF = experiment: MIC susceptibility profiling, efflux platform; conditions: for Fold change of MICs: EKO-35 araC::acrEF compared to EKO-35; for MIC: Escherichia coli, Table 13A, non-porinated, technical duplicate, read-out: Minimum Inhibitory Concentration, EKO-35 araC::acrEF
Summary of the method: as §2

E. coli ΔtolC = experiment: microbe, parasite or virus in culture; conditions: for MIC: Escherichia coli, 18 h, read-out: Minimum Inhibitory Concentration, ΔtolC; for Minimum inhibitory concentration (MIC), ΔtolC: Table 10, without pore, technical duplicate
Summary of the method: as §2

E. coli EKO-35 = experiment: microbe, parasite or virus in culture; conditions: for Fold change of MICs: EKO-35 compared to EKO-35 (reference); for MIC: Escherichia coli
Summary of the method: as §2

[2] = system: wild-type E. coli K-12 str. BW25113; experiment: microbe, parasite or virus in culture; conditions: Escherichia coli
Summary of the method: as §2

ΔtolC-Pore = experiment: microbe, parasite or virus in culture; conditions: for MIC: Escherichia coli, 18 h, read-out: Minimum inhibitory concentration, ΔtolC-Pore; for Minimum inhibitory concentration (MIC), Pore ΔtolC: Table 10, with pore, technical duplicate
Summary of the method: as §1

wild-type (WT) K-12-Pore = experiment: microbe, parasite or virus in culture; conditions: Escherichia coli
Summary of the method: as §1

[3] = Table 10, with pore, read-out: Minimum inhibitory concentration (MIC), Pore EKO-35
[4] = Table 14A, porinated, read-out: Minimum inhibitory concentration, EKO-35-Pore
[5] = EKO35, Table 10, without pore, technical duplicate, read-out: Minimum inhibitory concentration (MIC), EKO-35
[6] = EKO35, Table 13A, non-porinated, technical duplicate, read-out: Minimum Inhibitory Concentration, EKO-35
[7] = BW25113, Table 10, without pore, technical duplicate, read-out: Minimum inhibitory concentration (MIC), K-12
[8] = BW25113, Table 13A, non-porinated, technical duplicate, read-out: Minimum Inhibitory Concentration, K-12
[9] = Table 10, with pore, technical duplicate, read-out: Minimum inhibitory concentration (MIC), Pore K-12
[10] = Table 14A, porinated, technical duplicate, read-out: Minimum inhibitory concentration, K-12 (WT)-Pore

Row | Compound | Fold changes of MICs (EKO-35-Pore) [fold] | Fold changes of MICs (EKO-35 araC::mdtEF Pore) [fold] | Fold changes of MICs (EKO-35 araC::acrD Pore) [fold] | Fold changes of MICs (EKO-35 araC::emrAB Pore) [fold] | Fold changes of MICs (EKO-35 araC::acrEF Pore) [fold] | Fold changes of MICs (EKO-35 araC::emrKY Pore) [fold] | Fold changes of MICs (EKO-35 araC::mexCD Pore) [fold] | Fold changes of MICs (EKO-35 araC::acrB Pore) [fold] | Fold changes of MICs [1] [fold] | Fold changes of MICs (EKO-35 araC::macAB Pore) [fold] | Fold changes of MICs (EKO-35 araC::mdtBC Pore) [fold] | Fold change of MICs (EKO-35 araC::acrBD408A) [fold] | MIC (EKO-35 araC::acrBD408A) [µg/mL] | Fold change of MICs (EKO-35 araC::mdtBC) [fold] | Fold change of MICs (EKO-35 araC::acrEF) [fold] | MIC (E. coli ΔtolC) [µg/mL] | Minimum inhibitory concentration (MIC), ΔtolC (E. coli ΔtolC) [µg/mL] | Fold change of MICs (E. coli EKO-35) [fold] | MIC (ΔtolC-Pore) [µg/mL] | Minimum inhibitory concentration (MIC), Pore ΔtolC (ΔtolC-Pore) [µg/mL] | other results
1 | CCn1cc(C(=O)O)c(=O)c2cc(F)c(N3CCNCC3)cc21 [norfloxacin] | 1 | 2 | 2 | 2 | 4 | 1 | 4 | 8 | 2 | 2 | 2 | 1 | 0.02 | 1 | 4 | 0.02 | 0.020 | 1 | 0.01 | 0.010 | MIC (EKO-35-Pore; [3]): 0.01 µg/mL; MIC (EKO-35-Pore; [4]): 0.01 µg/mL; MIC (EKO-35 araC::mdtEF Pore): 0.02 µg/mL; MIC (EKO-35 araC::acrD Pore): 0.02 µg/mL; MIC (EKO-35 araC::emrAB Pore): 0.02 µg/mL; MIC (EKO-35 araC::acrEF Pore): 0.039 µg/mL; MIC (EKO-35 araC::emrKY Pore): 0.01 µg/mL; MIC (EKO-35 araC::mexCD Pore): 0.039 µg/mL; efflux pump-mediated resistance vs EKO-35-Pore (EKO-35 araC::mexCD Pore; MexCD, OM compromised): increased resistance; MIC [1]: 0.02 µg/mL; MIC (EKO-35 araC::macAB Pore): 0.02 µg/mL; MIC (EKO-35 araC::mdtBC Pore): 0.02 µg/mL; MIC (EKO-35 araC::mdtBC): 0.02 µg/mL; MIC (E. coli EKO-35; [5]): 0.02 µg/mL; MIC (E. coli EKO-35; [6]): 0.02 µg/mL; MIC [2, 7]: 0.078 µg/mL; MIC [2, 8]: 0.078 µg/mL; MIC (wild-type (WT) K-12-Pore; [9]): 0.078 µg/mL; MIC (wild-type (WT) K-12-Pore; [10]): 0.078 µg/mL
2 | COc1cc(Cc2cnc(N)nc2N)cc(OC)c1OC [trimethoprim] | 1 | 2 | 1 | 2 | 1 | 2 | 1 | 4 | 1 | 1 | 1 | 0 | 0.098 | 1 | 4 | 0.098 | 0.098 | 1 | 0.049 | 0.049 | efflux pump-mediated resistance vs EKO-35-Pore (EKO-35 araC::acrEF Pore; AcrEF with the pore): impacted the ability of AcrEF to confer resistance; MIC (EKO-35 araC::acrB Pore): 0.781 µg/mL; MIC (EKO-35 araC::acrEF): 0.781 µg/mL; MIC (E. coli EKO-35; EKO35, read-out: Minimum Inhibitory Concentration, EKO-35): 0.195 µg/mL; MIC (E. coli EKO-35; EKO35, read-out: Minimum inhibitory concentration (MIC), EKO-35): 0.195 µg/mL; MIC ([2]; BW25113, read-out: Minimum Inhibitory Concentration, K-12): 0.391 µg/mL; MIC ([2]; BW25113, read-out: Minimum inhibitory concentration (MIC), K-12): 0.391 µg/mL; MIC (wild-type (WT) K-12-Pore; read-out: Minimum inhibitory concentration (MIC), Pore K-12): 0.391 µg/mL; MIC (wild-type (WT) K-12-Pore; read-out: Minimum inhibitory concentration, K-12 (WT)-Pore): 0.391 µg/mL
3 | CC[n+]1c(-c2ccccc2)c2cc(N)ccc2c2ccc(N)cc21 [ethidium bromide] | 1 | 8 | 2 | 1 | 16 | 1 | 8 | 64 | 1 | 1 | 1 | 2 | 0.391 | 1 | 16 | 3.12 | 3.125 | 1 | 3.12 | 3.125 | MIC (EKO-35-Pore; [3]): 0.098 µg/mL; MIC (EKO-35-Pore; [4]): 0.098 µg/mL; MIC (EKO-35 araC::mdtEF Pore): 0.781 µg/mL; MIC (EKO-35 araC::acrD Pore): 0.195 µg/mL; MIC (EKO-35 araC::emrAB Pore): 0.098 µg/mL; MIC (EKO-35 araC::acrEF Pore): 1.56 µg/mL; MIC (EKO-35 araC::emrKY Pore): 0.098 µg/mL; MIC (EKO-35 araC::mexCD Pore): 0.781 µg/mL; MIC (EKO-35 araC::acrB Pore): 6.25 µg/mL; MIC [1]: 0.098 µg/mL; MIC (EKO-35 araC::macAB Pore): 0.098 µg/mL; MIC (EKO-35 araC::mdtBC Pore): 0.098 µg/mL; MIC (EKO-35 araC::mdtBC): 0.195 µg/mL; MIC (EKO-35 araC::acrEF): 3.12 µg/mL; MIC (E. coli EKO-35; [5]): 0.195 µg/mL; MIC (E. coli EKO-35; [6]): 0.195 µg/mL; MIC [2, 7]: 100 µg/mL; MIC [2, 8]: 100 µg/mL; MIC (wild-type (WT) K-12-Pore; [9]): 100 µg/mL; MIC (wild-type (WT) K-12-Pore; [10]): 100 µg/mL

Source: patent US20230407243A1, “GENETIC PLATFORM TO INVESTIGATE THE FUNCTIONS OF BACTERIAL DRUG EFFLUX PUMPS” (priority 2022, published 2023)
